Test results as given in patent US11173137B2, “Compositions and methods to modulate chloride ion channel activity” (The Board of Trustees of the Leland Stanford Junior …, priority 2018, dated 2021).
Where two headings read alike, the source gives them in different places.

How the values were obtained:
CLC-2 = CLC-2 (Homo sapiens (Human), UniProt P51788); assay: IonWorks Barracuda automated patch-clamp electrophysiology, human CLC-2 cell line; type: cell-based; conditions: for times greater potency towards CLC-2 compared to CLC-1: CLC-2 versus CLC-1
From the text: FIG. 8, panels A and B depict graphically the Selectivity between CLC-1 and CLC-2. […]

HERG = HERG (Homo sapiens (Human), UniProt Q12809); assay: PDSP primary binding assay and secondary assay
Experimental: (§1) Two exemplary compounds, FA44 and FA26, were screened against a panel of CNS receptors, transporters, and ion channels to examine specificity for CLC-2 in the brain. A comprehensive primary binding assay screen was performed through the NIH Psychoactive Drug Screening Program (PDSP) at UNC-Chapel Hill. Secondary or functional assays were performed for compounds showing >50% activity in the primary assay.

mGluR5 = mGluR5 (Homo sapiens (Human), UniProt P41594); assay: PDSP primary binding assay and secondary assay
Experimental: as §1

M5 = M5 (Homo sapiens (Human), UniProt P08912); assay: PDSP primary binding assay and secondary assay
Experimental: as §1

M1 = M1 (Homo sapiens (Human), UniProt P11229); assay: PDSP primary binding assay and secondary assay; conditions: primary binding assay at 10 μM
Experimental: as §1

Alpha2A = Alpha2A (Homo sapiens (Human), UniProt P08913); assay: PDSP primary binding assay and secondary assay; conditions: primary binding assay at 10 μM
Experimental: as §1

M3 = M3 (Homo sapiens (Human), UniProt P20309); assay: PDSP primary binding assay and secondary assay
Experimental: as §1

M4 = M4 (Homo sapiens (Human), UniProt P08173); assay: PDSP primary binding assay and secondary assay
Experimental: as §1

5-HT1A = 5-HT1A (Homo sapiens (Human), UniProt P08908); assay: PDSP primary binding assay and secondary assay
Experimental: as §1

Alpha2B = Alpha2B (Homo sapiens (Human), UniProt P18089); assay: PDSP primary binding assay; conditions: primary binding assay at 10 μM
Experimental: as §1

Alpha2C = Alpha2C (Homo sapiens (Human), UniProt P18825); assay: PDSP primary binding assay; conditions: primary binding assay at 10 μM
Experimental: as §1

5-HT2C = 5-HT2C (Homo sapiens (Human), UniProt P28335); assay: PDSP primary binding assay; conditions: primary binding assay at 10 μM
Experimental: as §1

Calcium channel = assay: PDSP primary binding assay; conditions: primary binding assay at 10 μM
Experimental: as §1

D1 = D1 (Homo sapiens (Human), UniProt P21728); assay: PDSP primary binding assay; conditions: primary binding assay at 10 μM
Experimental: as §1

5-HT7 = 5-HT7 (Homo sapiens (Human), UniProt P34969); assay: PDSP primary binding assay; conditions: primary binding assay at 10 μM
Experimental: as §1

Beta3 = Beta3 (Homo sapiens (Human), UniProt P13945); assay: PDSP primary binding assay; conditions: primary binding assay at 10 μM
Experimental: as §1

Oxytocin = Oxytocin (Homo sapiens (Human), UniProt P30559); assay: PDSP primary binding assay; conditions: primary binding assay at 10 μM
Experimental: as §1

MOR = MOR (Homo sapiens (Human), UniProt P35372); assay: PDSP primary binding assay; conditions: primary binding assay at 10 μM
Experimental: as §1

DOR = DOR (Homo sapiens (Human), UniProt P41143); assay: PDSP primary binding assay; conditions: primary binding assay at 10 μM
Experimental: as §1

H3 = H3 (Homo sapiens (Human), UniProt Q9Y5N1); assay: PDSP primary binding assay; conditions: primary binding assay at 10 μM
Experimental: as §1

D5 = D5 (Homo sapiens (Human), UniProt P21918); assay: PDSP primary binding assay; conditions: primary binding assay at 10 μM
Experimental: as §1

PBR = PBR (Homo sapiens (Human), UniProt P30536); assay: PDSP primary binding assay; conditions: primary binding assay at 10 μM
Experimental: as §1

5-HT1B = 5-HT1B (Homo sapiens (Human), UniProt P28222); assay: PDSP primary binding assay; conditions: primary binding assay at 10 μM
Experimental: as §1

M2 = M2 (Homo sapiens (Human), UniProt P08172); assay: PDSP primary binding assay; conditions: primary binding assay at 10 μM
Experimental: as §1

GABAA = assay: PDSP primary binding assay; conditions: primary binding assay at 10 μM
Experimental: as §1

5-HT5A = 5-HT5A (Homo sapiens (Human), UniProt P47898); assay: PDSP primary binding assay; conditions: primary binding assay at 10 μM
Experimental: as §1

KA = assay: PDSP primary binding assay; conditions: primary binding assay at 10 μM
Experimental: as §1

NMDA = assay: PDSP primary binding assay; conditions: primary binding assay at 10 μM
Experimental: as §1

BZP rat brain site = assay: PDSP primary binding assay; conditions: primary binding assay at 10 μM
Experimental: as §1

D2 = D2 (Homo sapiens (Human), UniProt P14416); assay: PDSP primary binding assay; conditions: primary binding assay at 10 μM
Experimental: as §1

NOP = NOP (Homo sapiens (Human), UniProt P41146); assay: PDSP primary binding assay; conditions: primary binding assay at 10 μM
Experimental: as §1

H2 = H2 (Homo sapiens (Human), UniProt P25021); assay: PDSP primary binding assay; conditions: primary binding assay at 10 μM
Experimental: as §1

5-HT1D = 5-HT1D (Homo sapiens (Human), UniProt P28221); assay: PDSP primary binding assay; conditions: primary binding assay at 10 μM
Experimental: as §1

SERT = SERT (Homo sapiens (Human), UniProt P31645); assay: PDSP primary binding assay; conditions: primary binding assay at 10 μM
Experimental: as §1

Beta1 = Beta1 (Homo sapiens (Human), UniProt P08588); assay: PDSP primary binding assay; conditions: primary binding assay at 10 μM
Experimental: as §1

5-HT2A = 5-HT2A (Homo sapiens (Human), UniProt P28223); assay: PDSP primary binding assay; conditions: primary binding assay at 10 μM
Experimental: as §1

Sigma 2 = Sigma 2 (Homo sapiens (Human), UniProt Q5BJF2); assay: PDSP primary binding assay; conditions: primary binding assay at 10 μM
Experimental: as §1

H1 = H1 (Homo sapiens (Human), UniProt P35367); assay: PDSP primary binding assay; conditions: primary binding assay at 10 μM
Experimental: as §1

Alpha1B = Alpha1B (Homo sapiens (Human), UniProt P35368); assay: PDSP primary binding assay; conditions: primary binding assay at 10 μM
Experimental: as §1

Chain of CLC-2 (P51788 whole entry): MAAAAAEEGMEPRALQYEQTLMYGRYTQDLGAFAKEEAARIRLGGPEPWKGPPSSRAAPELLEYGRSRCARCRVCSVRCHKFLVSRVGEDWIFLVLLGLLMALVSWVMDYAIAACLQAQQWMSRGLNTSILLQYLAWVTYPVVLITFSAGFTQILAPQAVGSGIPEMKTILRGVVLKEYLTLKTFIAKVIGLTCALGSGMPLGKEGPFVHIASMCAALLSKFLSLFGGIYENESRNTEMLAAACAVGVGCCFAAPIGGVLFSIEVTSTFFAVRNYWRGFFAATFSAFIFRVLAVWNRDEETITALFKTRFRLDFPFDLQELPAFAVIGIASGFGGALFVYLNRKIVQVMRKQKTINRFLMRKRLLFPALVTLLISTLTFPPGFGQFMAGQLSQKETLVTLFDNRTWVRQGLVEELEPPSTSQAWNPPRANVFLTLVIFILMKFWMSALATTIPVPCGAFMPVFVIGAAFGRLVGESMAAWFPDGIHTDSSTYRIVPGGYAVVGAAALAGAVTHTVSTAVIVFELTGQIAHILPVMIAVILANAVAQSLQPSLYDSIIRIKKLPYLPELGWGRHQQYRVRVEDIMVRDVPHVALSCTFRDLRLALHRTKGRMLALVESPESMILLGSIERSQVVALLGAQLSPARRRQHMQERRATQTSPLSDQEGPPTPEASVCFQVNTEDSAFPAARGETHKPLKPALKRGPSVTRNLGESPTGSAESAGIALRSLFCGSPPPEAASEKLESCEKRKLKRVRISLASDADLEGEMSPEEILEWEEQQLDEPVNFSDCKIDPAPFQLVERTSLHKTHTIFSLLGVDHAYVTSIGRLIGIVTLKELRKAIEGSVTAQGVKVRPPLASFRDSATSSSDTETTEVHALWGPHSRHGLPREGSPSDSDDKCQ
Chain of M3 (P20309 whole entry): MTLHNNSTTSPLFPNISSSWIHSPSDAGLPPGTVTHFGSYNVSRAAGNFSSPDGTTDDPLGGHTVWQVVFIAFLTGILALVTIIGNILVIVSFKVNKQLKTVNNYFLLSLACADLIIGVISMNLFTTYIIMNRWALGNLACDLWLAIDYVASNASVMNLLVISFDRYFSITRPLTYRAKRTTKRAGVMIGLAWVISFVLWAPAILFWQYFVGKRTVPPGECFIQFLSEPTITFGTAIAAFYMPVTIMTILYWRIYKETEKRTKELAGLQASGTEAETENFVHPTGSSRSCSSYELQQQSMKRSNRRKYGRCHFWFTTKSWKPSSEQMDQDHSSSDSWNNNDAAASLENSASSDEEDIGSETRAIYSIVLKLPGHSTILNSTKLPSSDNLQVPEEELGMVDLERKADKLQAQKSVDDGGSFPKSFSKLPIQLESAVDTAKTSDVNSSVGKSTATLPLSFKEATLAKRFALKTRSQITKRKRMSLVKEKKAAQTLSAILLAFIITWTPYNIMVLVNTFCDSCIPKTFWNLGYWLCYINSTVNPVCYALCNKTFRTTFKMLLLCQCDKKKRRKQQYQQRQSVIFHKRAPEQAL
Chain of M4 (P08173 whole entry): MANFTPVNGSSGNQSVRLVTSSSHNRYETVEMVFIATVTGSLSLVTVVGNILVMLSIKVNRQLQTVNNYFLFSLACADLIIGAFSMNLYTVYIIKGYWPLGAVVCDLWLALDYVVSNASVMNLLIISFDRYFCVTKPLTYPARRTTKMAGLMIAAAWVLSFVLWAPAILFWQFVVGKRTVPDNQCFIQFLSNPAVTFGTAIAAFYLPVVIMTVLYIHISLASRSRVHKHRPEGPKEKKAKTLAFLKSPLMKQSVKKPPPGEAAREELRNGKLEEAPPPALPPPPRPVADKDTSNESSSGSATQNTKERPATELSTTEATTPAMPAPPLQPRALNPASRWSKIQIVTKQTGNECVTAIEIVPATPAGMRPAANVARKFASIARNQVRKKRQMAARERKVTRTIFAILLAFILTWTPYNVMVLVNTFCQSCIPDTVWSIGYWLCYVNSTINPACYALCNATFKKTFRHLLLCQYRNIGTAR
Chain of 5-HT1A (P08908 whole entry, species assumed): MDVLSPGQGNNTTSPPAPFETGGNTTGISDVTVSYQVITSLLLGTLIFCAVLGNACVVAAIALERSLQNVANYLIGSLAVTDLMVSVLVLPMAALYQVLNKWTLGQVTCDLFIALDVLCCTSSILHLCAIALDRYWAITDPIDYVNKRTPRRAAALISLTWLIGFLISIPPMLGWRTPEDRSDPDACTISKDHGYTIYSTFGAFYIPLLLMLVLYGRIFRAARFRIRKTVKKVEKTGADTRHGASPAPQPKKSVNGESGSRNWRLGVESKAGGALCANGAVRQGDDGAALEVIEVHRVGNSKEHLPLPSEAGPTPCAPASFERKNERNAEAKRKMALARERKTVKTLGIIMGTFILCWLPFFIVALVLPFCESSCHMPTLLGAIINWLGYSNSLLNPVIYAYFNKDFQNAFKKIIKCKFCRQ
Chain of M5 (P08912 whole entry): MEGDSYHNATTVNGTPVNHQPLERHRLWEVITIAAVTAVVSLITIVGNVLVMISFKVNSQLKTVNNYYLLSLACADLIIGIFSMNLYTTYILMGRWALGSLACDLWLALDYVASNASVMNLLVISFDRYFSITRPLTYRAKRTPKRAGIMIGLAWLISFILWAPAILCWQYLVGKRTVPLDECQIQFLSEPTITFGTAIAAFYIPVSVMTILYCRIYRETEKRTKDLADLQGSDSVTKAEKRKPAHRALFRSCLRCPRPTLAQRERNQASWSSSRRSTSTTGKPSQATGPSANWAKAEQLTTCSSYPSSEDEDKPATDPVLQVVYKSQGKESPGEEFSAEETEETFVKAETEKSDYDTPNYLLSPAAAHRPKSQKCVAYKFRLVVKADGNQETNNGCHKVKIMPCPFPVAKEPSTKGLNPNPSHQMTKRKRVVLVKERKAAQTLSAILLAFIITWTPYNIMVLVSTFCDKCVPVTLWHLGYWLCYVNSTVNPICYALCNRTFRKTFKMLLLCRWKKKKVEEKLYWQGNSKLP
Chain of mGluR5 (P41594 21-1212): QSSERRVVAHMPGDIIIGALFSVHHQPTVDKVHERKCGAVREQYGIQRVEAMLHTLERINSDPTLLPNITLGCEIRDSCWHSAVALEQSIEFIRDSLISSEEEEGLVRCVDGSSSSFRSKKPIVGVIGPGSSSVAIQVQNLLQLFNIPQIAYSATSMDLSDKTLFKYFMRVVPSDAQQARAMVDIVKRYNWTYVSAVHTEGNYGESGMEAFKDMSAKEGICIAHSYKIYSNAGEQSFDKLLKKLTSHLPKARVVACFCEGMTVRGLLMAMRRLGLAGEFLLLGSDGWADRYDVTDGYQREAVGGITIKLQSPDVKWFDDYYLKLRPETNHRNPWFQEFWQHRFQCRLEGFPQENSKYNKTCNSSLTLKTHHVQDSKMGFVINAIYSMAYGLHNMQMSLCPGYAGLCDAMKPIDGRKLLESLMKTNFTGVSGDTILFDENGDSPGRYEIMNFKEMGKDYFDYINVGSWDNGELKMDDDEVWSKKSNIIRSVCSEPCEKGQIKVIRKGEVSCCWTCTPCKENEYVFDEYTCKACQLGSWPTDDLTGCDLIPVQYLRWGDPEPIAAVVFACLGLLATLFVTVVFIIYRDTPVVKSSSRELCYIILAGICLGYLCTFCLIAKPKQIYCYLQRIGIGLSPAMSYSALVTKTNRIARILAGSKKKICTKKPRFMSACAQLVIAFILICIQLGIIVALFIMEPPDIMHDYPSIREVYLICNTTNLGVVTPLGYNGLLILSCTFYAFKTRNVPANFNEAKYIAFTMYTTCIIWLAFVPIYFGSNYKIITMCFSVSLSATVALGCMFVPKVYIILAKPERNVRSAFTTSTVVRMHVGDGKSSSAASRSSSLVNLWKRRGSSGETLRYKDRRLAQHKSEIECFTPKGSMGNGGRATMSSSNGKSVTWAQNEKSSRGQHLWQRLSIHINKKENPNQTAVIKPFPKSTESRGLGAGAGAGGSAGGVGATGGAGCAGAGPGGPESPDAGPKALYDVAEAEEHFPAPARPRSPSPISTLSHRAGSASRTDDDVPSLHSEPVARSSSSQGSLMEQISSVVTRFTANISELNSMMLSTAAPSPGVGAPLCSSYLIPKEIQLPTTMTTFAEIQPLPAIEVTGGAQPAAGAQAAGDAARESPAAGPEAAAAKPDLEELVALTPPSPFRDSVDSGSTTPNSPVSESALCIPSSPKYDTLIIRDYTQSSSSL
Chain of D1 (P21728 whole entry): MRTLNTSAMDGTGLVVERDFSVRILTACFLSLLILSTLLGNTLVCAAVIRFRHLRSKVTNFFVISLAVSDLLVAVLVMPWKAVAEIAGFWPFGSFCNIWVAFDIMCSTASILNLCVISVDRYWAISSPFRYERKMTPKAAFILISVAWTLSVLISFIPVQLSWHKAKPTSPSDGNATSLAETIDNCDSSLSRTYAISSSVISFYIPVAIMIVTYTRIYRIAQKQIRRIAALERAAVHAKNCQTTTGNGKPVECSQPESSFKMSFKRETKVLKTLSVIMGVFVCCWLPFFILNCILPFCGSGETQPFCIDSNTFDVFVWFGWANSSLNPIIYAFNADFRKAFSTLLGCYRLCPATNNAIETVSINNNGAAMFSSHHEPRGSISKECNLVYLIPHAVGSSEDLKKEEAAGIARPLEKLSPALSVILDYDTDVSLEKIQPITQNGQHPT
Chain of H2 (P25021 whole entry): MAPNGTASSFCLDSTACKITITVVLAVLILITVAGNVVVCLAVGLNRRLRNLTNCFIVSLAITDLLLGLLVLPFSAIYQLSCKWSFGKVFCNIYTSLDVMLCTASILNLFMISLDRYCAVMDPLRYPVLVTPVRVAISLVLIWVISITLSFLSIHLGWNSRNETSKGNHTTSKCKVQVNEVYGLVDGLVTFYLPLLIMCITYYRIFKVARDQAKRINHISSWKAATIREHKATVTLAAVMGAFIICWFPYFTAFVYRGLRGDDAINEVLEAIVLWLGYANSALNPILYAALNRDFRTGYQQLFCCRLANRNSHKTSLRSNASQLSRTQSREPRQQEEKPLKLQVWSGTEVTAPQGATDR

Structure (SMILES): O=C(O)c1cccnc1Nc1c(Cl)ccc(OCc2ccccc2)c1Cl [AK3-238]
- % inhibition at the concentration listed (in parenthesis) (CLC-2; CLC-2, at the concentration listed in the IC50 cell, negative = increase in peak current): (90%)
- times greater potency towards CLC-2 compared to CLC-1 (CLC-2): approximately 10,000 times
- times greater potency towards CLC-2 compared to CLC-1 (CLC-2; listed as FA44): 10,000 times
- selectivity CLC-2 over CLC-1 (CLC-2; FIG. 8 panel A): selective for CLC-2 over CLC-1
- IC50 (CLC-2; Table 2 / FIG. 8, 16 concentrations, n=4-8, −120 mV, read-out: IC50 (CLC-2)): 0.017 ± 0.002 µM
- IC50 (CLC-2; n = 4 cells, four concentrations of each compound, IonWorks Barracuda, read-out: IC50 (μM) against CLC-2): < 0.12 µM
- % (10 μM) (HERG; primary binding assay at 10 μM): −43.87%
- Ki (HERG; secondary or functional assay): > 10 µM
- % (10 μM) (mGluR5; primary binding assay at 10 μM): 57.39%
- Ki (mGluR5; secondary or functional assay): > 10 µM
- % (10 μM) (M5; primary binding assay at 10 μM): 13.55%
- Ki (M5; secondary or functional assay): > 10 µM
- % (10 μM) (M1): 11.29%
- % (10 μM) (Alpha2A): −2.55%
- % (10 μM) (M3; primary binding assay at 10 μM): 54.64%
- Ki (M3; secondary or functional assay): > 3 µM
- % (10 μM) (M4; primary binding assay at 10 μM): 56.16%
- Ki (M4; secondary or functional assay): > 5 µM
- % (10 μM) (5-HT1A; primary binding assay at 10 μM): 53.99%
- Ki (5-HT1A; secondary or functional assay): > 10 µM
- % (10 μM) (Alpha2B): −28.62%
- % (10 μM) (Alpha2C): 3.41%
- % (10 μM) (5-HT2C): −13.39%
- % (10 μM) (Calcium channel): 23.69%
- % (10 μM) (D1): −9.96%
- % (10 μM) (5-HT7): 17.51%
- % (10 μM) (Beta3): 24.76%
- % (10 μM) (Oxytocin): −1.41%
- % (10 μM) (MOR): −0.18%
- % (10 μM) (DOR): 16.59%
- % (10 μM) (H3): −0.92%
- % (10 μM) (D5): 31.58%
- % (10 μM) (PBR): 8.22%
- % (10 μM) (5-HT1B): 49.89%
- % (10 μM) (M2): −8.25%
- % (10 μM) (GABAA): −4.29%
- % (10 μM) (5-HT5A): 28.19%
- % (10 μM) (KA): 36.60%
- % (10 μM) (NMDA): 24.18%
- % (10 μM) (BZP rat brain site): 29.32%
- % (10 μM) (D2): 7.69%
- % (10 μM) (NOP): 21.14%
- % (10 μM) (H2): 5.35%
- % (10 μM) (5-HT1D): 44.06%
- % (10 μM) (SERT): 30.25%
- % (10 μM) (Beta1): 22.04%
- % (10 μM) (5-HT2A): 18.91%
- % (10 μM) (Sigma 2): −8.14%
- % (10 μM) (H1): 15.48%
- % (10 μM) (Alpha1B): 4.90%
